{
  "source": "patent US10350220B2",
  "about": "“Methods and materials for reducing suppression of immune function” (Mayo Foundation for Medical Education and Research, priority 2011, dated 2019)",
  "system": "CD14+ cells co-cultured with a renal cell tumor line (ACHN)",
  "assay": "HLA-DR expression of isolated CD14+ cells co-cultured with ACHN renal cell tumor line, flow cytometry",
  "settings": "CD14+ cells exposed to ACHN cancer cells, RU486 5 or 20 μM added day 0; compared with cells exposed to cancer cells and not treated",
  "data": [
    {"molecule": "CC#C[C@]1(O)CC[C@H]2[C@@H]3CCC4=CC(=O)CCC4=C3[C@@H](c3ccc(N(C)C)cc3)C[C@@]21C", "note": "[RU486, mifepristone]", "values": [
      {"measurement": "HLA-DR expression (MFI of HLA-DR staining, FIG. 1)", "result": "more HLA-DR expression than cells exposed to cancer cells and not treated with RU486"}
    ]}
  ]
}
